Experimental data reported in the supplement of paper PMC10307832.

Tests used:
Assay in all cases: relative viability (nuclei count vs DMSO), 5 days (fraction); higher = more cells survive
Ponatinib + AZD7762 = compound: Cc1ccc(C(=O)Nc2ccc(CN3CCN(C)CC3)c(C(F)(F)F)c2)cc1C#Cc1cnc2cccnn12 [Ponatinib] + NC(=O)Nc1cc(-c2cccc(F)c2)sc1C(=O)N[C@H]1CCCNC1 [AZD7762] (partner 0.2 µM)
Procedure, shortened: (§1)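 Relative viability equals treated-well nuclei counts divided by vehicle-well nuclei counts. Counts came from 4× images of lung cancer cell lines grown in 1536-well plates for 5 days after pin-tool dosing on the day after seeding. Dosing used one drug alone or a fixed anchor-drug dose plus five library-drug doses (not always all listed) in √10 steps, and values are medians of duplicate plates.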

Pazopanib + Foretinib = compound: Cc1ccc(Nc2nccc(N(C)c3ccc4c(C)n(C)nc4c3)n2)cc1S(N)(=O)=O [Pazopanib] + COc1cc2c(Oc3ccc(NC(=O)C4(C(=O)Nc5ccc(F)cc5)CC4)cc3F)ccnc2cc1OCCCN1CCOCC1 [Foretinib] (partner 0.25 µM)
Procedure, shortened: as §1

Ponatinib + Vorinostat = compound: Cc1ccc(C(=O)Nc2ccc(CN3CCN(C)CC3)c(C(F)(F)F)c2)cc1C#Cc1cnc2cccnn12 [Ponatinib] + O=C(CCCCCCC(=O)Nc1ccccc1)NO [Vorinostat] (partner 1 µM)
Procedure, shortened: as §1

Pazopanib + Crizotinib = compound: Cc1ccc(Nc2nccc(N(C)c3ccc4c(C)n(C)nc4c3)n2)cc1S(N)(=O)=O [Pazopanib] + C[C@@H](Oc1cc(-c2cnn(C3CCNCC3)c2)cnc1N)c1c(Cl)ccc(F)c1Cl [Crizotinib] (partner 1 µM)
Procedure, shortened: as §1

| Cell Line | relative viability (Ponatinib + AZD7762; first compound 0.002 µM) | relative viability (Ponatinib + AZD7762; first compound 0.006325 µM) | relative viability (Ponatinib + AZD7762; first compound 0.06325 µM) | relative viability (Ponatinib + AZD7762; first compound 0.2 µM) | relative viability (Pazopanib + Foretinib; first compound 0.01 µM) | relative viability (Pazopanib + Foretinib; first compound 0.03162 µM) | relative viability (Pazopanib + Foretinib; first compound 0.1 µM) | relative viability (Pazopanib + Foretinib; first compound 0.3162 µM) | relative viability (Pazopanib + Foretinib; first compound 1 µM) | relative viability (Ponatinib + Vorinostat; first compound 0.002 µM) | relative viability (Ponatinib + Vorinostat; first compound 0.006325 µM) | relative viability (Ponatinib + Vorinostat; first compound 0.06325 µM) | relative viability (Ponatinib + Vorinostat; first compound 0.2 µM) | relative viability (Pazopanib + Crizotinib; first compound 0.01 µM) | relative viability (Pazopanib + Crizotinib; first compound 0.03162 µM) | relative viability (Pazopanib + Crizotinib; first compound 0.1 µM) | relative viability (Pazopanib + Crizotinib; first compound 0.3162 µM) | relative viability (Pazopanib + Crizotinib; first compound 1 µM) |
| --- | --- | --- | --- | --- | --- | --- | --- | --- | --- | --- | --- | --- | --- | --- | --- | --- | --- | --- |
| 201T | 0.557 | 0.546 | 0.38 | 0.371 | 1.13 | 1.09 | 1.1 | 1.15 | 0.996 | 0.965 | 0.992 | 1.05 | 0.939 | 1.05 | 1.07 | 1.03 | 1.06 | 1.06 |
| A549 | – | – | – | – | 0.905 | 1.03 | 1.16 | 0.985 | 0.913 | – | – | – | – | 0.813 | 0.855 | 0.709 | 0.692 | 0.732 |
| A-427 | 0.713 | 0.73 | 0.593 | 0.582 | 0.971 | 1.21 | 1.15 | 1.02 | 1.05 | 0.829 | 0.904 | 1.03 | 0.881 | 1.01 | 0.934 | 0.967 | 0.788 | 0.818 |
| ABC-1 | 0.828 | 0.878 | 0.755 | 0.663 | 0.843 | 1.06 | – | 0.975 | 1.04 | 0.786 | 1.06 | 0.988 | 0.994 | 1.27 | 1.04 | 0.873 | 0.986 | 1.11 |
| BEN | 0.494 | 0.625 | 0.589 | 0.774 | – | 0.656 | 0.517 | 0.804 | 0.696 | 0.562 | 0.631 | 0.666 | 0.546 | 0.737 | 1.05 | 0.814 | 0.904 | 0.787 |
| CAL-12T | 0.548 | 0.554 | 0.611 | 0.5 | 1.03 | 1.06 | 1.17 | 1.05 | 0.97 | 0.958 | 0.666 | 0.864 | 0.876 | 0.685 | 0.676 | 0.726 | 0.6 | 0.675 |
| COR-L23 | – | – | – | – | 0.916 | 1.03 | 0.922 | 0.986 | 0.989 | 0.31 | 0.403 | 0.52 | 0.462 | 0.635 | 0.645 | 0.663 | 0.704 | 0.64 |
| COR-L 105 | – | – | – | – | 0.926 | 0.87 | 1.15 | 1.04 | 1.18 | 0.802 | 0.953 | 0.899 | 0.837 | 0.712 | 0.984 | 0.838 | 0.883 | 0.964 |
| Calu-6 | – | – | – | – | 0.89 | 0.954 | 0.93 | 0.848 | 0.803 | – | – | – | – | 0.853 | 0.821 | 0.81 | 0.764 | 0.762 |
| ChaGo-K-1 | 0.763 | 0.857 | 0.847 | 0.819 | 0.934 | 0.909 | 1.01 | 0.884 | 0.946 | 0.699 | 0.732 | 0.664 | 0.648 | 1.18 | 1.19 | 0.997 | 1.23 | 1.06 |
| EBC-1 | – | – | – | – | 0.095 | 0.104 | 0.0934 | 0.103 | 0.0962 | – | – | – | – | 0.224 | 0.202 | 0.197 | 0.184 | 0.187 |
| EKVX | 0.7 | 0.766 | 0.673 | 0.606 | 0.961 | 0.866 | 0.62 | 0.901 | 0.942 | 0.762 | 0.822 | 0.927 | 0.826 | 0.841 | 1.07 | 0.898 | 0.916 | 0.891 |
| EMC-BAC-2 | 0.996 | 1.05 | 1.13 | 0.989 | – | 0.991 | 1.01 | 1.02 | 1.06 | 0.288 | 0.337 | 0.427 | 0.368 | 0.735 | 0.786 | 0.649 | 0.782 | 0.749 |
| EPLC-272H | 0.242 | 0.175 | 0.204 | 0.234 | – | 0.762 | 0.693 | 0.758 | 0.793 | 0.461 | 0.525 | 0.579 | 0.545 | 0.771 | 1.11 | 1.07 | 0.885 | 1.03 |
| H3255 | 0.817 | 0.858 | 1.05 | 0.95 | 0.625 | 0.838 | 0.794 | 0.84 | 0.939 | 0.613 | 0.85 | 0.75 | 0.782 | 0.828 | 0.882 | 0.853 | 0.945 | 0.995 |
| HARA | 0.382 | 0.351 | 0.31 | 0.356 | 0.902 | 0.977 | 1 | 0.884 | 0.95 | – | 0.491 | 0.548 | 0.46 | 1.1 | 1.04 | 1.22 | 1.05 | 1.1 |
| HCC-15 | 1.18 | 1.19 | 1.32 | 1.31 | 0.999 | 1.01 | 1.16 | 1.01 | 1.08 | 0.826 | 0.829 | 0.949 | 0.809 | 0.773 | 0.924 | 1.01 | 0.813 | 0.893 |
| HCC-44 | 0.992 | 1.02 | 1.02 | 0.997 | – | – | – | – | – | 1.1 | 1.07 | 1.07 | 1.07 | 0.839 | 0.779 | 0.86 | 0.795 | 0.823 |
| HCC-78 | 0.52 | 0.537 | 0.669 | 0.647 | 0.523 | 0.553 | 0.524 | 0.638 | 0.701 | 0.458 | 0.486 | 0.497 | 0.406 | 0.366 | 0.354 | 0.349 | 0.358 | 0.383 |
| HCC-366 | 0.247 | 0.271 | 0.146 | 0.119 | 1.01 | 0.956 | 0.974 | 0.969 | 0.938 | 0.329 | 0.318 | 0.416 | 0.317 | 0.508 | 0.485 | 0.478 | 0.528 | 0.63 |
